{"source": "paper PMC9905601", "about": "“Archaeal DNA-import apparatus is homologous to bacterial conjugation machinery” (Nature Communications, 2023)", "target": "T1, P. calidifontis protein Pcal_0765, TedC (Pyrobaculum calidifontis, UniProt A3MU74)", "T1 sequence (A3MU74 23-153)": "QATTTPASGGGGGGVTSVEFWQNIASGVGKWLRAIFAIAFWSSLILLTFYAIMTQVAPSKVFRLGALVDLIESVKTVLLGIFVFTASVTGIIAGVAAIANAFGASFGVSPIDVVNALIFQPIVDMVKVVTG", "experiment": "cryo-EM structure of native pilus, […] Å", "type": "binding"}
{"molecule": "C[C@@H]1CCC[C@H](C)CCC[C@@H](C)CC[C@H](C)CCC[C@@H](C)CCC[C@H](C)CCC[C@H](C)CCOC[C@H](CO)OCC[C@H](C)CCC[C@H](C)CCC[C@H](C)CCC[C@@H](C)CC[C@H](C)CCC[C@@H](C)CCC[C@H](C)CCC[C@H](C)CCOC[C@H](CO)OCC[C@H](C)CCC1", "note": "[GDGT-0]", "values": [{"measurement": "cryo-EM structure of native pilus, 4.0 Å", "result": "we have modeled the simplest form, GDGT-0, into the cryo-EM density"}]}
